Here are results for four molecules from paper PMC7026418, “The kinase polypharmacology landscape of clinical PARP inhibitors” (Scientific Reports, 2020).

Like-named read-outs stand apart in the source and are kept apart here.

Holding throughout (assay): biochemical
Common to all, as to parameters: DiscoveRx KINOMEscan active site-directed competition binding; percent of control kinase bound to immobilised ligand

Assay [1] addresses MAP3K1 (Homo sapiens, UniProt Q13233).
The target of assay [2] is T1, FLT3(D835H) (Homo sapiens, UniProt P36888, D835H).
T1 sequence (P36888 1-993 D835H): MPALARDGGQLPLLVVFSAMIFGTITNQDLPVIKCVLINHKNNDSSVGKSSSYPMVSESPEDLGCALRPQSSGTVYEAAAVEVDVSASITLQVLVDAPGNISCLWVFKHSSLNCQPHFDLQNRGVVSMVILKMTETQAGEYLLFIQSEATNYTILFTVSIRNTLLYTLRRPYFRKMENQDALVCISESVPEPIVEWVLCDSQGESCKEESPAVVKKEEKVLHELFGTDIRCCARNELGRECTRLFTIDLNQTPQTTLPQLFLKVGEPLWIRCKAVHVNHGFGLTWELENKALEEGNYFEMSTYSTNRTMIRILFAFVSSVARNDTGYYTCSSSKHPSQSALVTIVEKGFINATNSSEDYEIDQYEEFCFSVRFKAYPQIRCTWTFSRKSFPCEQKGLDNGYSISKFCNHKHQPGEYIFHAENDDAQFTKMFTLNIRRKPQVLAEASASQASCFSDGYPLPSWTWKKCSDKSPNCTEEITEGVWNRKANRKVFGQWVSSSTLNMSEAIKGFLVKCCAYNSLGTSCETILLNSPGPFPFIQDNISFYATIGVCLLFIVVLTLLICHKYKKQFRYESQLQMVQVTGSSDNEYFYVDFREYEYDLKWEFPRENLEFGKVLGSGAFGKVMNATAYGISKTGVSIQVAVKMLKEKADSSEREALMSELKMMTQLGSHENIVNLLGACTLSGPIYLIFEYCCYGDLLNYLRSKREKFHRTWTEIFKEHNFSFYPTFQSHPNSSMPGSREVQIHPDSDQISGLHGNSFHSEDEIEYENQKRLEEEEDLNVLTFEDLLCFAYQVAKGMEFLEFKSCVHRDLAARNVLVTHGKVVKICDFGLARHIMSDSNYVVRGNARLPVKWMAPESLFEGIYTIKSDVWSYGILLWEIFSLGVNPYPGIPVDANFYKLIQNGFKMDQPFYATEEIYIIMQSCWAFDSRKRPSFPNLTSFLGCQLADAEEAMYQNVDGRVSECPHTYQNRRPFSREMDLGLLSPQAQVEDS

Assay [3] has as its target T2, NEK9 (Homo sapiens, UniProt Q8TD19).
T2 sequence (Q8TD19 1-979): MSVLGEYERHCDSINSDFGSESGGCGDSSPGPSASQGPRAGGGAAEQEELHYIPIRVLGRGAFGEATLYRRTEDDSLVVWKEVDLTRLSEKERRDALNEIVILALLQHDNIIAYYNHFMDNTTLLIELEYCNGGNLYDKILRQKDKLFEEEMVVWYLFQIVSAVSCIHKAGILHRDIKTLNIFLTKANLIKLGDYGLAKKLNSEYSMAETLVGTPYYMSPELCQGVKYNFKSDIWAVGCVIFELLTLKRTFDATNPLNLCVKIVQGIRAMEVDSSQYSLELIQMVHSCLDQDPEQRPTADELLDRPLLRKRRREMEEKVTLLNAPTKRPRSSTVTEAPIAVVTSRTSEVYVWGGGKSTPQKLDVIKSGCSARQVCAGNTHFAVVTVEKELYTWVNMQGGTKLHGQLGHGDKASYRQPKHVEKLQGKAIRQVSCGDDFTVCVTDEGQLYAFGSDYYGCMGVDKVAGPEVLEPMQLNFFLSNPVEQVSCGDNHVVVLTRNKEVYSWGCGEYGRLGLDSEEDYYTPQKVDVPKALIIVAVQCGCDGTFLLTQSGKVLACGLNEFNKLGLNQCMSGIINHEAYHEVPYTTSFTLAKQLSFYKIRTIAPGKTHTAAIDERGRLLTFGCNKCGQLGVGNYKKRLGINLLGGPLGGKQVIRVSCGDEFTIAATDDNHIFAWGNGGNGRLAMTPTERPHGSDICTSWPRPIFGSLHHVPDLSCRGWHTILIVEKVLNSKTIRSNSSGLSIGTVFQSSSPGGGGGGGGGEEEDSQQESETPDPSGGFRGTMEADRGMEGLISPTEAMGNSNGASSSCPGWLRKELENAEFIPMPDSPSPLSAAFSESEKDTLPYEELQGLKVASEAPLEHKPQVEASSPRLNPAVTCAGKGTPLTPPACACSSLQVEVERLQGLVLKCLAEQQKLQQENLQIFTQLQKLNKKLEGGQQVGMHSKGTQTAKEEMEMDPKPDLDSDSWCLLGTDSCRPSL

The target of assay [4] is T3, ERK5 (Homo sapiens, UniProt Q13164).
T3 construct: gene MAPK7
T3 sequence (Q13164 whole entry): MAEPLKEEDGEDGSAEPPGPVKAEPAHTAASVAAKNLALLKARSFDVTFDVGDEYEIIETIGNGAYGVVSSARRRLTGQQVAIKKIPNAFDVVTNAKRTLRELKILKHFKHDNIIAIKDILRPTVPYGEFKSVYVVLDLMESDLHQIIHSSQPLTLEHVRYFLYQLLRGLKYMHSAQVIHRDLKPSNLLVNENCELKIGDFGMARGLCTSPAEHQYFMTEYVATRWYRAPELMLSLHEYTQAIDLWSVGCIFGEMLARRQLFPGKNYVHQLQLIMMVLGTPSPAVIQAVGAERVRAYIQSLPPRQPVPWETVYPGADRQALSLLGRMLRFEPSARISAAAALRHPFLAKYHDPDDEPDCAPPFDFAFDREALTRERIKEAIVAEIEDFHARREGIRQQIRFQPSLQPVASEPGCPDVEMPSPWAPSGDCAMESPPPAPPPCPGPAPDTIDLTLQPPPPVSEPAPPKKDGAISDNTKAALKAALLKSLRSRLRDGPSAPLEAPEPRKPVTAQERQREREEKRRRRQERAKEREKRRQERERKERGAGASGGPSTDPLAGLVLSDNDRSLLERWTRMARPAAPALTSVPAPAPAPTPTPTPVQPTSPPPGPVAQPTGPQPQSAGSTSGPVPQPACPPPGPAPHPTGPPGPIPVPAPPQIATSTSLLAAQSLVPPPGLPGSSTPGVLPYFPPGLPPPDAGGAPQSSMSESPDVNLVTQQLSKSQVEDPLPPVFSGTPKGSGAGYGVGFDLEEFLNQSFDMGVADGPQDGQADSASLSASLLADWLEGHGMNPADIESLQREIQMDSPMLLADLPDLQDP

The target in assay [5] is T4, RSK3(Kin.Dom.2-C-terminal) (Homo sapiens, UniProt Q15349).
T4 construct: gene RPS6KA2; Kin.Dom.2-C-terminal
T4 sequence (Q15349 whole entry): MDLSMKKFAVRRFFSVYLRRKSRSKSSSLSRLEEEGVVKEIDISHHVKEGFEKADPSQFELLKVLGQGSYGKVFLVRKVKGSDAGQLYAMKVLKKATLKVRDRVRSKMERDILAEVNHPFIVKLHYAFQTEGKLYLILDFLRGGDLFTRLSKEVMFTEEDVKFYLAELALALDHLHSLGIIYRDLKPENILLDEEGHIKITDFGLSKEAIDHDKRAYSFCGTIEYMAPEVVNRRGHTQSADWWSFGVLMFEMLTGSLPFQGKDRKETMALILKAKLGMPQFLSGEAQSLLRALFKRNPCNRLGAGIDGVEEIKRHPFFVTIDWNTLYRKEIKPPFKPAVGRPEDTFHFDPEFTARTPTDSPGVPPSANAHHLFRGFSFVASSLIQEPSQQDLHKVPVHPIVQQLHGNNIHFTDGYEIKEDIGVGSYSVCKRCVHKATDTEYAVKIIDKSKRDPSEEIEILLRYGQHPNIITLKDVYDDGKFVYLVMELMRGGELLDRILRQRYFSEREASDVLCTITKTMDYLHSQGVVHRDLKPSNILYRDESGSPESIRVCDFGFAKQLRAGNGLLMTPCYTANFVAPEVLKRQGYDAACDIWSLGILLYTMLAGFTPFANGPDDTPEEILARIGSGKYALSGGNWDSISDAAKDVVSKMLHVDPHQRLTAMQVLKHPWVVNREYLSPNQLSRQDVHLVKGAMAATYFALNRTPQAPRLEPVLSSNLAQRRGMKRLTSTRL

[6] abbreviates: read-out: Rucaparib / %Ctrl @ 10000nM, binding competition, % of control.
Where [7] appears, read: read-out: Talazoparib (BMN 673) / %Ctrl @ 10000nM.
[8] abbreviates: read-out: Niraparib (MK-4827) / %Ctrl @ 10000nM.
Where [9] appears, read: read-out: Olaparib / %Ctrl @ 10000nM.

Sequence of MAP3K1 (Q13233 whole entry): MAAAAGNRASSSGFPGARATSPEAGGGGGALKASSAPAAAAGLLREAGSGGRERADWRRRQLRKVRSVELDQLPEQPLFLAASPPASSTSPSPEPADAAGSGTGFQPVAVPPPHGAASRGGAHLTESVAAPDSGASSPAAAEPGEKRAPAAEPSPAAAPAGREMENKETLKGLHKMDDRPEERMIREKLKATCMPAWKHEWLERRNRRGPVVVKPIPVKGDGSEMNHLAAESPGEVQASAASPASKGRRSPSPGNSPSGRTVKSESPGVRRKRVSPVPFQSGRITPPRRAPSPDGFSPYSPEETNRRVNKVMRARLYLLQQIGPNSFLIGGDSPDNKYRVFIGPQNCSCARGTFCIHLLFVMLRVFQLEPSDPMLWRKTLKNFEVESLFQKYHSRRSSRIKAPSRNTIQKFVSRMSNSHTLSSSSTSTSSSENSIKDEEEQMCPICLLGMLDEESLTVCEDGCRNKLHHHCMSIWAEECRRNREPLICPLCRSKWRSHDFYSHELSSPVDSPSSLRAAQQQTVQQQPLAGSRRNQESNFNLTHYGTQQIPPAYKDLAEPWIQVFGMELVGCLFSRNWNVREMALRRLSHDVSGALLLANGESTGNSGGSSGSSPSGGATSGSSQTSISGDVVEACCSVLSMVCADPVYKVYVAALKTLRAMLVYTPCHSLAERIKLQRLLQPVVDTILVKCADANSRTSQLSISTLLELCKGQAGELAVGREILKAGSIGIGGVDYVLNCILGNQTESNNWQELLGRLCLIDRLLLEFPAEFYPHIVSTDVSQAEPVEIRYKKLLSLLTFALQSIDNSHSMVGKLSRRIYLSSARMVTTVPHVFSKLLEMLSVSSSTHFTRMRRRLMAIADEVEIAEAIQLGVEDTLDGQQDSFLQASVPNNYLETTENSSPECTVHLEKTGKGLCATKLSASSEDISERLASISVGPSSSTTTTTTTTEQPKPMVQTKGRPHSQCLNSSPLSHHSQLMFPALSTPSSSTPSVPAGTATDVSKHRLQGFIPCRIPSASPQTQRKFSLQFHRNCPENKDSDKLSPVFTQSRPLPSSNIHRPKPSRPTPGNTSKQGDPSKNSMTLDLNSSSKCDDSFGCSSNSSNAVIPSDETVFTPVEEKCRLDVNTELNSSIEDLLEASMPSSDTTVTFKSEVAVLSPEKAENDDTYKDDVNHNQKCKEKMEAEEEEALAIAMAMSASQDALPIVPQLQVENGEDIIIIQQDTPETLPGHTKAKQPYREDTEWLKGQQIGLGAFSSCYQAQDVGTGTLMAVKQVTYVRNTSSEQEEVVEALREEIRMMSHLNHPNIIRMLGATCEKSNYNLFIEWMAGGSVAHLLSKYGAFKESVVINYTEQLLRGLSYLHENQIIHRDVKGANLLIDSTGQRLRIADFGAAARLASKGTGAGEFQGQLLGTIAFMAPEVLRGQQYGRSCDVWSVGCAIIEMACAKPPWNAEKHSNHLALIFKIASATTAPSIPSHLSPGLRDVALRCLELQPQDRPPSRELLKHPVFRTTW

Consider `CNCc1ccc(-c2[nH]c3cc(F)cc4c3c2CCNC4=O)cc1` [Rucaparib], for which the percent of control binding at 10 µM in assay [1] (setting [6]) turned out to be 98%; in assay [3] (setting [6]), 100%; in assay [4] (setting [6]) it was 100%; in assay [5] (setting [6]), 67%. Further, the “Rucaparib / %Ctrl @ 10000nM” value in assay [2] (binding competition, % of control) stood at 42%.
As to `Cn1ncnc1[C@H]1c2n[nH]c(=O)c3cc(F)cc(c23)N[C@@H]1c1ccc(F)cc1` [Talazoparib], the percent of control binding at 10 µM came out at 97% in assay [1] (setting [7]); 89% in assay [2] (setting [7]); 99% in assay [3] (setting [7]); 99% in assay [4] (setting [7]); 100% in assay [5] (setting [7]).
Regarding `NC(=O)c1cccc2cn(-c3ccc([C@@H]4CCCNC4)cc3)nc12` [Niraparib], the percent of control binding at 10 µM in assay [1] (setting [8]) came out at 92%; in assay [2] (setting [8]), 83%; in assay [3] (setting [8]), 100%; in assay [4] (setting [8]), 100%; in assay [5] (setting [8]) it was 93%.
`O=C(c1cc(Cc2n[nH]c(=O)c3ccccc23)ccc1F)N1CCN(C(=O)C2CC2)CC1` [Olaparib]: the percent of control binding at 10 µM is 91% in assay [1] (setting [9]); 91% in assay [2] (setting [9]); 100% in assay [3] (setting [9]); 100% in assay [4] (setting [9]); 70% in assay [5] (setting [9]).
